From US20050112573A1, “Method of detecting toxic substance” (priority 2001, published 2005)

Tested on: yeast genes (level of expressed mRNA)
Assay: DNA chip analysis of expressed mRNA of yeast genes after 2 h culture with a toxic chemical substance
Assay type: cell-based, Saccharomyces cerevisiae S288C
Procedure: Yeast (Saccharomyces cerevtisiae S288C (α SUC2mal mel gap2 CUP1)) were cultured at 25° C. on YPD medium (yeast extract 1%, polypepton 2%, glucose 2%). One of toxic chemical substances was added to the cell at logarithmic growth phase, and the cell was further cultured for two hours. Cell was cultured without any chemical substance in the same condition, and was used as control. Concentrations of the chemical substances were defined to inhibit the growth of the yeast but not lead to death.
After the completion of cultivation, the culture was centrifuged to collect the cells. To the cells, sodium acetate buffer (50 mM sodium acetate, 10 mM EDTA, 1% SDS) was added, and the mixture was shaken at 65° C. for five minutes, followed by returning to room temperature, and obtaining the supernatant, which procedure was repeated two times. To the supernatant, ½ amount of a solution of phenol/chloroform was added, and the mixture was centrifuged to give a supernatant, which was added with an equal amount of chloroform, and the mixture was centrifuged to give a supernatant. To the supernatant, an equal amount of isopropanol containing 0.3 M sodium acetate was added, and the mixture was allowed to stand at room temperature for 30 minutes, after which the mixture was centrifuged to give a sediment of the whole RNAs. Seventy % ethanol was added to the sediment, and the mixture was again centrifuged to give a sediment, which was then dried and dissolved in water. mRNA was isolated from the whole RNAs as followings. In view of the fact that a poly A chain is attached to the 3′ terminus of mRNA, a polynucleotide having a poly T structure which was immobilized on the surface of latex beads was used to trap the mRNA, and then the mRNA was washed and eluted with spine column (Oligotex-dT30<Super>mRNA Purification Kit, Takara). Reverse transcription of the mRNA was conducted with a reverse transcriptase (Super Script II Reverse Transcriptase; catalogue No. 18064-014, GibcoBRL) using fluorescence-labeled nucleotides to give cDNAs that were introduced with Cy3-dUTP or Cy5-dUTP during the reverse transcription.
The labeled cDNAs were dissolved in TE buffer (10 mM Tris-HCl/1 mM EDTA, pH8.0), and the solution was dropped on the DNA chip containing the whole genes of yeast (DNA Chip Research Inc. Japan) so that the cDNAs were hybridized on the DNA chip at 65° C. for over 12 hours. The fluoresces intensity of the DNA chip was read with a scanner, and the ratio relative to the fluorescence intensity resulting from the absence of chemical substance was estimated as the following, which is shown in Tables 1 to 9: [formula]
In the Tables, “Intensity” indicated in the rightmost column is a value of the level of expressed mRNA of each gene in control cells as divided by the average level of the expressions of the whole genes.

## COc1cc(CNC(=O)CCCCC=CC(C)C)ccc1O [(12), 8-methyl-N-vanillyl-6-nonenamide]
Gene YML110C
  level of expressed mRNA in the presence of chemical substance/in its absence: 1.1
Gene YML118W
  The level of expressed mRNA in the presence of chemical substance/absence: YML118W: 0.9
Gene YMR068W
  The level of expressed mRNA in the presence of chemical substance/absence: YMR068W: 0.7
Gene YMR071C
  The level of expressed mRNA in the presence of chemical substance/absence: YMR071C: 0.7
Gene YMR105C
  level of expressed mRNA in the presence of chemical substance/in its absence: 1.7
Gene YMR114C
  The level of expressed mRNA in the presence of chemical substance/absence: YMR114C: 0.9
Gene YMR115W
  The level of expressed mRNA in the presence of chemical substance/absence: YMR115W: 1.0
Gene YMR160W
  The level of expressed mRNA in the presence of chemical substance/absence: YMR160W: 1.0
Gene YMR189W
  level of expressed mRNA in the presence of chemical substance/in its absence: 0.6
Gene YMR258C
  The level of expressed mRNA in the presence of chemical substance/absence: YMR258C: 0.9
Gene YMR271C
  level of expressed mRNA in the presence of chemical substance/in its absence: 1.3
Gene YMR272C
  level of expressed mRNA in the presence of chemical substance/in its absence: 1.2
Gene YMR296C
  level of expressed mRNA in the presence of chemical substance/in its absence: 0.8
Gene YNL012W
  level of expressed mRNA in the presence of chemical substance/in its absence: 1.3
Gene YNL026W
  The level of expressed mRNA in the presence of chemical substance/absence: YNL026W: 0.9
Gene YNL037C
  level of expressed mRNA in the presence of chemical substance/in its absence: 1.3
Gene YNL045W
  level of expressed mRNA in the presence of chemical substance/in its absence: 0.9
Gene YNL058C
  The level of expressed mRNA in the presence of chemical substance/absence: YNL058C: 1.0
Gene YNL063W
  The level of expressed mRNA in the presence of chemical substance/absence: YNL063W: 1.0
Gene YNL104C
  level of expressed mRNA in the presence of chemical substance/in its absence: 1.1
Gene YNL106C
  level of expressed mRNA in the presence of chemical substance/in its absence: 0.8
Gene YNL130C
  level of expressed mRNA in the presence of chemical substance/in its absence: 0.9
Gene YNL169C
  level of expressed mRNA in the presence of chemical substance/in its absence: 1.0
Gene YNL176C
  The level of expressed mRNA in the presence of chemical substance/absence: YNL176C: 0.6
Gene YNL181W
  The level of expressed mRNA in the presence of chemical substance/absence: YNL181W: 0.8
Gene YNL191W
  The level of expressed mRNA in the presence of chemical substance/absence: YNL191W: 0.5
Gene YNL194C
  The level of expressed mRNA in the presence of chemical substance/absence: YNL194C: 0.5
Gene YNL200C
  The level of expressed mRNA in the presence of chemical substance/absence: YNL200C: 0.9
Gene YNL212W
  The level of expressed mRNA in the presence of chemical substance/absence: YNL212W: 0.8
Gene YNL231C
  level of expressed mRNA in the presence of chemical substance/in its absence: 1.8
Gene YNL253W
  The level of expressed mRNA in the presence of chemical substance/absence: YNL253W: 0.8
Gene YNL265C
  The level of expressed mRNA in the presence of chemical substance/absence: YNL265C: 0.8
Gene YNL276C
  The level of expressed mRNA in the presence of chemical substance/absence: YNL276C: 0.9
Gene YNL322C
  level of expressed mRNA in the presence of chemical substance/in its absence: 0.7
Gene YNR002C
  level of expressed mRNA in the presence of chemical substance/in its absence: 1.2
Gene YNR019W
  level of expressed mRNA in the presence of chemical substance/in its absence: 1.0
Gene YNR033W
  level of expressed mRNA in the presence of chemical substance/in its absence: 1.1
Gene YNR051C
  The level of expressed mRNA in the presence of chemical substance/absence: YNR051C: 0.9
Gene YNR059W
  level of expressed mRNA in the presence of chemical substance/in its absence: 0.8
Gene YOL026C
  The level of expressed mRNA in the presence of chemical substance/absence: YOL026C: 0.9
Gene YOL030W
  The level of expressed mRNA in the presence of chemical substance/absence: YOL030W: 0.9
Gene YOL058W
  level of expressed mRNA in the presence of chemical substance/in its absence: 1.3
Gene YOL126C
  level of expressed mRNA in the presence of chemical substance/in its absence: 1.1
Gene YOL143C
  level of expressed mRNA in the presence of chemical substance/in its absence: 1.2
Gene YOL153C
  level of expressed mRNA in the presence of chemical substance/in its absence: 1.9
Gene YOL157C
  level of expressed mRNA in the presence of chemical substance/in its absence: 1.2
Gene YOR022C
  The level of expressed mRNA in the presence of chemical substance/absence: YOR022C: 0.8
Gene YOR087W
  The level of expressed mRNA in the presence of chemical substance/absence: YOR087W: 0.8
Gene YOR088W
  The level of expressed mRNA in the presence of chemical substance/absence: YOR088W: 0.6
Gene YOR099W
  level of expressed mRNA in the presence of chemical substance/in its absence: 1.1
Gene YOR130C
  level of expressed mRNA in the presence of chemical substance/in its absence: 0.9
Gene YOR136W
  level of expressed mRNA in the presence of chemical substance/in its absence: 1.2
Gene YOR138C
  The level of expressed mRNA in the presence of chemical substance/absence: YOR138C: 0.9
Gene YOR155C
  The level of expressed mRNA in the presence of chemical substance/absence: YOR155C: 0.5
Gene YOR253W
  The level of expressed mRNA in the presence of chemical substance/absence: YOR253W: 0.7
Gene YOR267C
  The level of expressed mRNA in the presence of chemical substance/absence: YOR267C: 0.9
Gene YOR325W
  The level of expressed mRNA in the presence of chemical substance/absence: YOR325W: 0.9
Gene YOR336W
  level of expressed mRNA in the presence of chemical substance/in its absence: 1.0
